Test results reported in a compilation of properties of binary mixtures (doi:10.1021/acs.jpcb.8b06939).

Assay: xn = mol fraction of the nth substance listed
Conditions: 100 kPa

In the case of `O=C[C@H](O)[C@@H](O)[C@H](O)[C@H](O)CO` + CC(=O)[O-].CC[n+]1ccn(C)c1, the viscosity (282.5 K, x1 = 0.0474) was 756 mPa·s, the viscosity (282.5 K, x1 = 0.095) was 2299 mPa·s and the viscosity (283.3 K, x1 = 0.1429) was 7397 mPa·s. For the same molecule, the viscosity (292.4 K, x1 = 0.0095) was 185 mPa·s, the viscosity (292.4 K, x1 = 0.0284) was 245 mPa·s and the viscosity (292.4 K, x1 = 0.0474) was 339 mPa·s. The viscosity (292.4 K, x1 = 0.095) was 870 mPa·s, the viscosity (293.3 K, x1 = 0.1429) was 2397 mPa·s and the viscosity (302.1 K, x1 = 0.1429) was 921 mPa·s. It also gave a viscosity (303 K, x1 = 0.0095) of 100 mPa·s, a viscosity (303 K, x1 = 0.0284) of 123 mPa·s and a viscosity (303 K, x1 = 0.0474) of 165 mPa·s. The viscosity (303 K, x1 = 0.095) was 380 mPa·s, the viscosity (312.5 K, x1 = 0.0095) was 61 mPa·s and the viscosity (312.5 K, x1 = 0.0284) was 73 mPa·s. It also gave a viscosity (312.5 K, x1 = 0.0474) of 97 mPa·s, a viscosity (312.5 K, x1 = 0.095) of 193 mPa·s and a viscosity (322.6 K, x1 = 0.0095) of 38 mPa·s. It also gave a viscosity (322.6 K, x1 = 0.0284) of 45 mPa·s, a viscosity (322.6 K, x1 = 0.0474) of 58 mPa·s and a viscosity (322.6 K, x1 = 0.095) of 111 mPa·s. It also gave a viscosity (322.6 K, x1 = 0.1429) of 207 mPa·s, a viscosity (332.2 K, x1 = 0.0095) of 28 mPa·s and a viscosity (332.2 K, x1 = 0.0284) of 32 mPa·s. For the same molecule, the viscosity (332.2 K, x1 = 0.0474) was 39 mPa·s, the viscosity (332.2 K, x1 = 0.095) was 68 mPa·s and the viscosity (341.3 K, x1 = 0.0284) was 23 mPa·s. The viscosity (341.3 K, x1 = 0.095) was 47 mPa·s, the viscosity (342.5 K, x1 = 0.0095) was 20 mPa·s and the viscosity (342.5 K, x1 = 0.0474) was 29 mPa·s. It also gave a viscosity (342.5 K, x1 = 0.1429) of 77 mPa·s, a viscosity (352.1 K, x1 = 0.0095) of 15 mPa·s and a viscosity (352.1 K, x1 = 0.0284) of 18 mPa·s. For the same molecule, the viscosity (352.1 K, x1 = 0.0474) was 21 mPa·s, the viscosity (352.1 K, x1 = 0.095) was 34 mPa·s and the viscosity (352.1 K, x1 = 0.1429) was 53 mPa·s. The viscosity (362.3 K, x1 = 0.0095) was 13 mPa·s, the viscosity (362.3 K, x1 = 0.0284) was 14 mPa·s and the viscosity (362.3 K, x1 = 0.0474) was 16 mPa·s. For the same molecule, the viscosity (362.3 K, x1 = 0.095) was 24 mPa·s, the viscosity (362.3 K, x1 = 0.1429) was 38 mPa·s and the viscosity (371.7 K, x1 = 0.0095) was 11 mPa·s. The viscosity (371.7 K, x1 = 0.0284) was 12 mPa·s, the viscosity (371.7 K, x1 = 0.0474) was 13 mPa·s and the viscosity (371.7 K, x1 = 0.1429) was 28 mPa·s.
For `OC[C@H]1O[C@@H](O[C@H]2[C@H](O)[C@@H](O)C(O)O[C@@H]2CO)[C@H](O)[C@@H](O)[C@@H]1O` (stereo partly specified) + CC(=O)[O-].CC[n+]1ccn(C)c1, the viscosity (282.5 K, x1 = 0.005) was 407 mPa·s, the viscosity (282.5 K, x1 = 0.0151) was 517 mPa·s and the viscosity (282.5 K, x1 = 0.0255) was 756 mPa·s. The viscosity (282.5 K, x1 = 0.0524) was 2299 mPa·s, the viscosity (283.3 K, x1 = 0.0807) was 7397 mPa·s and the viscosity (292.4 K, x1 = 0.005) was 185 mPa·s. The viscosity (292.4 K, x1 = 0.0151) was 245 mPa·s, the viscosity (292.4 K, x1 = 0.0524) was 870 mPa·s and the viscosity (293.3 K, x1 = 0.0807) was 2397 mPa·s. For the same molecule, the viscosity (303 K, x1 = 0.005) was 100 mPa·s, the viscosity (303 K, x1 = 0.0151) was 123 mPa·s and the viscosity (303 K, x1 = 0.0255) was 165 mPa·s. It also gave a viscosity (303 K, x1 = 0.0524) of 380 mPa·s, a viscosity (312.5 K, x1 = 0.0255) of 97 mPa·s and a viscosity (312.5 K, x1 = 0.0524) of 193 mPa·s. The viscosity (312.5 K, x1 = 0.0807) was 419 mPa·s, the viscosity (322.6 K, x1 = 0.005) was 38 mPa·s and the viscosity (322.6 K, x1 = 0.0255) was 58 mPa·s. It also gave a viscosity (322.6 K, x1 = 0.0524) of 111 mPa·s, a viscosity (332.2 K, x1 = 0.005) of 28 mPa·s and a viscosity (332.2 K, x1 = 0.0151) of 32 mPa·s. The viscosity (332.2 K, x1 = 0.0524) was 68 mPa·s, the viscosity (341.3 K, x1 = 0.0151) was 23 mPa·s and the viscosity (341.3 K, x1 = 0.0524) was 47 mPa·s. The viscosity (342.5 K, x1 = 0.0255) was 29 mPa·s, the viscosity (342.5 K, x1 = 0.0807) was 77 mPa·s and the viscosity (352.1 K, x1 = 0.005) was 15 mPa·s. For the same molecule, the viscosity (352.1 K, x1 = 0.0151) was 18 mPa·s, the viscosity (352.1 K, x1 = 0.0255) was 21 mPa·s and the viscosity (352.1 K, x1 = 0.0524) was 34 mPa·s. The viscosity (352.1 K, x1 = 0.0807) was 53 mPa·s, the viscosity (362.3 K, x1 = 0.005) was 13 mPa·s and the viscosity (362.3 K, x1 = 0.0151) was 14 mPa·s. For the same molecule, the viscosity (362.3 K, x1 = 0.0255) was 16 mPa·s, the viscosity (362.3 K, x1 = 0.0524) was 24 mPa·s and the viscosity (362.3 K, x1 = 0.0807) was 38 mPa·s. It also gave a viscosity (371.7 K, x1 = 0.005) of 11 mPa·s, a viscosity (371.7 K, x1 = 0.0151) of 12 mPa·s and a viscosity (371.7 K, x1 = 0.0255) of 13 mPa·s. The viscosity (371.7 K, x1 = 0.0807) was 28 mPa·s and the viscosity (373.1 K, x1 = 0.0524) was 19 mPa·s.
